Key:
Assay type in all cases: in vivo, mouse
NZB/NZWF1 mice [1] = experiment: Titers of serum IgG antibodies to dsDNA by ELISA; conditions: antibody two i.p. injections ~3 mg/kg, cyclophosphamide 50 mg/kg weekly
NZB/NZWF1 mice [2] = conditions: antibodies two doses ~3 mg/kg i.p., cyclophosphamide 50 mg/kg weekly injections, to 43 weeks of age
NZB/NZWF1 mice [3] = experiment: Levels of proteinuria (colorimetric total urine protein assay); conditions: by the end of the study (43 weeks), antibodies two i.p. injections ~3 mg/kg, cyclophosphamide 50 mg/kg weekly
NZB/NZWF1 mice [4] = experiment: Histological examination of kidneys; conditions: trend, not statistically significant
NZB/NZWF1 mice [5] = experiment: Kidney section staining for CD4+, CD8+ and FoxP3+ cells; conditions: kidney sections of NZB/NZWF1 mice scored blindly on a scale of 0-4

O=P1(N(CCCl)CCCl)NCCCO1 (centres unmarked) [cyclophosphamide, Cyclophosphamide]
effect on development of autoantibodies against dsDNA (serum IgG titers) (NZB/NZWF1 mice [1]): effectively reduced | survival (NZB/NZWF1 mice [2]): 80% | mice that reached severe proteinuria (>500 mg/dL/day) (NZB/NZWF1 mice [3]): 20% | median glomerulopathy scores (NZB/NZWF1 mice [4]; compared to rat IgG and vehicle control groups): reduced | interstitial inflammation (NZB/NZWF1 mice [4]): Reduced | CD4+ cells infiltrating the kidneys (NZB/NZWF1 mice [5]): significant decrease | CD8+ cells infiltrating the kidneys (NZB/NZWF1 mice [5]): significant decrease | FoxP3+ cells infiltrating the kidneys (NZB/NZWF1 mice [5]): significant decrease

— US9617343B2, “Methods and compositions for treating lupus” (GENZYME CORPORATION, priority 2009, dated 2017)
